Experimental findings from patent publication US8440710B2, “HSL inhibitors useful in the treatment of diabetes” (Hoffmann-La Roche Inc., priority 2009, dated 2013) are described below.

The target in the experiment is T1, human HSL (Homo sapiens, UniProt Q05469).
T1 construct: generate a full length human HSL ORF with a 3′-His6 tag; made in house; host or cells: High 5 insect cells (baculovirus, pFast-BAC)
T1 sequence (Q05469 1-1076): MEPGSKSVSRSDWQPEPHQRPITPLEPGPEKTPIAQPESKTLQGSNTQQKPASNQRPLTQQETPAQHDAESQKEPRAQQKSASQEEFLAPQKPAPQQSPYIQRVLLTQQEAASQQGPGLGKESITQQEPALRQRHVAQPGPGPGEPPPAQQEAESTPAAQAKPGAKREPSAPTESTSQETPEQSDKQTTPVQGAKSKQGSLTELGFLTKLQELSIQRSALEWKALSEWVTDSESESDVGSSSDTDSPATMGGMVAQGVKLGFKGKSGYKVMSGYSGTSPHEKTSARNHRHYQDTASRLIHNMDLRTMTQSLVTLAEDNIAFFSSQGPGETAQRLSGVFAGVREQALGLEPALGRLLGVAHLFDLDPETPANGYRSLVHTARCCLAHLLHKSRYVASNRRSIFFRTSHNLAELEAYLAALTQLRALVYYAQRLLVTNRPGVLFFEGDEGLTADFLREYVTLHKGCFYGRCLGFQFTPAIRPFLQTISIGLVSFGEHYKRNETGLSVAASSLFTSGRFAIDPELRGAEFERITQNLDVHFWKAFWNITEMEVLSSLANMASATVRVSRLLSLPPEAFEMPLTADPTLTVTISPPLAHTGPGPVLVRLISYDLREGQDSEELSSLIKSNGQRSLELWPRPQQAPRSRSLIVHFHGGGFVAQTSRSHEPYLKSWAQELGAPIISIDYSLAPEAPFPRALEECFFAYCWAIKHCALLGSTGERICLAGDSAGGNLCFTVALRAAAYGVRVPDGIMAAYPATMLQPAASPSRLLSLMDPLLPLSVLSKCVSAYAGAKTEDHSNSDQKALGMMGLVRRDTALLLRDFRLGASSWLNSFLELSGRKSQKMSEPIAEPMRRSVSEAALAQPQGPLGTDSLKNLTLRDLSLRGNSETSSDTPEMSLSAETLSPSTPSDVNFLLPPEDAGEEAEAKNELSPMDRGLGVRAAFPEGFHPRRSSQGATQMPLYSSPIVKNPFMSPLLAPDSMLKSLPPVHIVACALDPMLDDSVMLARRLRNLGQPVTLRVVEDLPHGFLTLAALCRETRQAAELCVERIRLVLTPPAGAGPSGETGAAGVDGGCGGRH
In words: Human Hormone-Sensitive Lipase (HSL) enzyme inhibition assay (colorimetric, DMPT substrate). The conditions noted are these: human full length HSL-His6, 2,3-dimercapto-1-propanol tributyrate substrate, 37° C. 20 minutes, absorbance at 405 nm; read-out: HSL hum IC50. Type of experiment: biochemical. In short, it runs like this: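 Full-length human HSL with C-terminal His6, expressed in baculovirus-infected High 5 cells and Ni-NTA purified, was added (15 ug/ml stock) to 1.5 mM DMPT in 100 mM MOPS pH 7.2, 0.2 mg/ml fatty acid-free BSA containing compound. After 20 min at 37 °C, DTNB with SDS/Triton X-100 was added; A405 read after 15 min at RT.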
By IC50 is commonly meant the concentration at which inhibition is half-maximal. For the molecule `C[C@]1(O)CC[C@]2(CCN(c3ccc(C4CC4)cc3)C2=O)CC1` [Example 73, (5α,8α)-2-(4-Cyclopropyl-phenyl)-8-hydroxy-8-methyl-2-aza-spiro[4.5]decan-1-one], the half-maximal inhibitory concentration (IC50) came to 0.15 µM. For `CC(Oc1ccc(N2CC[C@]3(CC[C@@](O)(C(F)(F)F)CC3)C2=O)cc1)C(F)(F)F` (stereo partly drawn) [Example 177, (5α,8α)-8-Hydroxy-8-trifluoromethyl-2-[4-(2,2,2-trifluoro-1-methyl-ethoxy)-phenyl]-2-aza-spiro[4.5]decan-1-one] the value was 0.03 µM; for `COC[C@]1(O)CC[C@]2(CCN(c3ccc(O[C@@H](C)C(F)(F)F)nc3)C2=O)CC1` [Example 153, (5α,8α)-8-Hydroxy-8-methoxymethyl-2-[6-((S)-2,2,2-trifluoro-1-methyl-ethoxy)-pyridin-3-yl]-2-aza-spiro[4.5]decan-1-one], 0.05 µM; for `CC(C)(C)c1ccc(N2CC[C@]3(CC[C@@](O)(COc4cccnc4)CC3)C2=O)cc1` [Example 354, (5α,8α)-2-(4-tert-Butyl-phenyl)-8-hydroxy-8-(pyridin-3-yloxymethyl)-2-aza-spiro[4.5]decan-1-one], 0.05 µM. The value for `COCCc1ccc(N2CC[C@]3(CC[C@](O)(CC(C)C)CC3)C2=O)cc1` [Example 125, (5α,8β)-8-Hydroxy-8-isobutyl-2-[4-(2-methoxy-ethyl)-phenyl]-2-aza-spiro[4.5]decan-1-one] was 1.81 µM. The value for `CCCOC[C@]1(O)CC[C@]2(CCN(c3ccc(CC)cc3)C2=O)CC1` [Example 226, (5α,8α)-2-(4-Ethyl-phenyl)-8-hydroxy-8-propoxymethyl-2-aza-spiro[4.5]decan-1-one] was 0.02 µM; that for `COC[C@]1(O)CC[C@]2(CCN(c3ccc(C4CC(F)(F)C4)cc3)C2=O)CC1` [Example 342, (5α,8α)-2-[4-(3,3-Difluoro-cyclobutyl)-phenyl]-8-hydroxy-8-methoxymethyl-2-aza-spiro[4.5]decan-1-one] was 0.03 µM.
